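These data come from cells grown in 96-well plates and exposed to compound for 48 hours at five concentrations. Abbreviation: GI50, concentration required for 50% inhibition of growth.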 Calls of active or inactive are those of the source. Rule as the data show it: active = GI50 up to about 1.1 µM and inactive = higher.
Key:
Assay in all cases: DTP human tumour cell line panel, 48 h
[1] = system: MDA-MB-435
[2] = system: SNB-19
[3] = system: IGROV-1
[4] = system: TK-10
[5] = system: SF-268
[6] = system: COLO 205
[7] = system: NCI-H460
[8] = system: SF-295
[9] = system: ACHN
[10] = system: MDA-MB-231
[11] = system: RXF 393
[12] = system: NCI-H23
[13] = system: Malme-3M
[14] = system: UACC-257
[15] = system: OVCAR-8
[16] = system: KM12
[17] = system: SW-620
[18] = system: RPMI-8226
[19] = system: CCRF-CEM
[20] = system: SR

Measured: GI50

CC1=[N+]([O-])C2(CCCC2)N(O)C1(C)C
inactive: [1] > 100 µM | [2] > 100 µM | [3] > 100 µM | [4] > 100 µM | [5] > 100 µM | [6] > 100 µM | [7] > 100 µM | [8] > 100 µM | [9] > 100 µM | [10] > 100 µM | [11] > 100 µM | [12] > 100 µM | [13] > 100 µM | [14] > 100 µM | [15] > 100 µM | [16] > 100 µM | [17] > 100 µM | [18] > 100 µM

CCOC(=O)C1=CNC2=N[C@H]3CCCC[C@@H]3N2C1=O
inactive: [1] > 100 µM | [2] > 100 µM | [3] > 100 µM | [5] > 100 µM | [6] > 100 µM | [7] > 100 µM | [8] > 100 µM | [9] > 100 µM | [10] > 100 µM | [12] > 100 µM | [13] > 100 µM | [14] > 100 µM | [15] > 100 µM | [19] > 100 µM | [16] > 100 µM | [17] > 100 µM | [18] > 100 µM

C[C@]12CC[C@@H]3c4ccc(OS(N)(=O)=O)cc4CC[C@H]3[C@@H]1CCC2=O [EMATE]
inactive: [1] 39.4 µM | [2] 73.3 µM | [3] 28.7 µM | [4] 59.6 µM | [5] 32.9 µM | [6] 38.7 µM | [7] 31.6 µM | [8] 36.4 µM | [9] 84.9 µM | [10] 94 µM | [11] 63.4 µM | [12] 37.8 µM | [13] 45.6 µM | [14] 32.4 µM | [15] 53 µM | [19] 39 µM | [16] 30.5 µM | [17] 44.6 µM | [18] 31.1 µM

COC(=O)c1cnn2c1ccc1ccccc12
inactive: [1] > 100 µM | [2] > 100 µM | [3] 78.9 µM | [4] > 100 µM | [5] > 100 µM | [6] > 100 µM | [7] > 100 µM | [8] > 100 µM | [9] > 100 µM | [10] > 100 µM | [11] > 100 µM | [12] > 100 µM | [13] > 100 µM | [14] > 100 µM | [15] > 100 µM | [19] > 100 µM | [16] 61.5 µM | [17] > 100 µM | [18] > 100 µM

O=C(C1OC1c1cccc([N+](=O)[O-])c1)C12CC3CC(CC(C3)C1)C2 (stereo unspecified)
inactive: [1] 3.52 µM | [2] 8.13 µM | [3] 6.53 µM | [4] 18.1 µM | [5] 2.63 µM | [6] 9.89 µM | [7] 4.06 µM | [8] 6.11 µM | [9] 9.59 µM | [10] 4.83 µM | [11] 5.33 µM | [12] 5.74 µM | [13] 13.7 µM | [14] 11.7 µM | [15] 2.25 µM | [19] 2.89 µM | [16] 3.78 µM | [17] 2.97 µM | [18] 2.13 µM

O=C1CC2(C[C@@H]3CCCCCCCCC[C@@H](C3)C2)N1 (stereo partly specified)
inactive: [2] 20 µM | [3] 12.9 µM | [4] 17.1 µM | [5] 20.4 µM | [6] 16.7 µM | [7] 16.6 µM | [8] 17 µM | [9] 15.5 µM | [11] 16.2 µM | [12] 16.7 µM | [13] 11.8 µM | [20] 10.8 µM | [14] 12.2 µM | [15] 17.5 µM | [19] 17.5 µM | [16] 17.8 µM | [17] 18.7 µM | [18] 13.7 µM

COC(=O)[C@H](COC(=O)/C=C/c1ccc(OC(C)=O)c(OC(C)=O)c1)NC(=O)/C=C/c1ccc(OC(C)=O)c(OC(C)=O)c1
inactive: [1] 19.4 µM | [2] 15.8 µM | [3] 18.5 µM | [6] 18.5 µM | [7] 22.4 µM | [9] 18 µM | [10] 17.7 µM | [11] 28.5 µM | [12] 22.4 µM | [13] 5.09 µM | [14] 20.5 µM | [15] 27.7 µM | [19] 5.98 µM | [16] 16.2 µM | [17] 30.7 µM | [18] > 100 µM

O=C(NNc1nc(-c2ccccc2)cs1)Nc1ccccc1
inactive: [1] 22.2 µM | [2] 44.1 µM | [3] 34.8 µM | [4] 19.5 µM | [5] 27.5 µM | [6] 19.6 µM | [7] 24 µM | [8] 28.1 µM | [9] 37.5 µM | [10] 21.4 µM | [11] 6.14 µM | [12] 20.2 µM | [13] 39.5 µM | [14] 20.7 µM | [15] 22.7 µM | [19] 34.3 µM | [16] 32.9 µM | [17] 37.6 µM | [18] 13.4 µM

CCN(CC)CCNc1nc(N)c(C#N)c(C#N)c1C#N
inactive: [1] > 10 µM | [2] > 10 µM | [3] > 10 µM | [4] > 10 µM | [5] > 10 µM | [6] > 10 µM | [7] > 10 µM | [8] > 10 µM | [9] > 10 µM | [10] > 10 µM | [11] > 10 µM | [12] > 10 µM | [13] > 10 µM | [14] > 10 µM | [15] > 10 µM | [19] > 10 µM | [16] > 10 µM | [17] > 10 µM | [18] > 10 µM

CCN(CC)CCOCC1CCCN2CCCCC12 (stereo unspecified)
inactive: [1] > 100 µM | [2] > 100 µM | [4] > 100 µM | [5] > 100 µM | [6] > 100 µM | [7] > 100 µM | [8] > 100 µM | [9] > 100 µM | [10] > 100 µM | [11] > 100 µM | [12] > 100 µM | [13] > 100 µM | [14] > 100 µM | [15] > 100 µM | [19] > 100 µM | [16] > 100 µM | [17] > 100 µM | [18] > 100 µM

NC(=S)Nc1nc(=S)[nH]c2[nH]ccc12
inactive: [1] 30.9 µM | [2] > 100 µM | [3] 88.5 µM | [4] 94.8 µM | [5] 20.2 µM | [6] 82.4 µM | [7] > 100 µM | [8] 65.5 µM | [9] > 100 µM | [10] > 100 µM | [12] > 100 µM | [20] 29.4 µM | [14] > 100 µM | [15] 49.3 µM | [19] 24.2 µM | [16] 26.2 µM | [17] > 100 µM | [18] 25.9 µM

CC1=CC(=O)/C(=C/n2c(=S)[nH]c3cc(C)ccc32)C(=O)O1
inactive: [1] > 100 µM | [2] > 100 µM | [3] > 100 µM | [4] > 100 µM | [5] > 100 µM | [6] > 100 µM | [7] > 100 µM | [8] > 100 µM | [9] > 100 µM | [10] > 100 µM | [11] 6.21 µM | [12] > 100 µM | [14] > 100 µM | [15] > 100 µM | [19] 98.9 µM | [16] > 100 µM | [17] > 100 µM

COc1ccccc1C(=O)OCC1CCCN2CCCCC12 (stereo unspecified)
inactive: [1] 64.3 µM | [2] 35.9 µM | [4] > 100 µM | [5] 36.5 µM | [6] 21.1 µM | [7] 21.6 µM | [8] 26.3 µM | [9] > 100 µM | [10] 24.8 µM | [11] 22.2 µM | [12] > 100 µM | [13] 33.6 µM | [14] 31 µM | [15] 21 µM | [19] 18.6 µM | [16] 18.2 µM | [17] > 100 µM | [18] 42.2 µM

O=C(c1cc(Cl)ccc1Cl)N1CCN(c2cccc(Cl)c2)CC1
inactive: [2] 34.8 µM | [3] 10.8 µM | [4] 49.5 µM | [5] 27.9 µM | [7] 14.6 µM | [8] 7.55 µM | [9] 22.8 µM | [10] 5.6 µM | [11] 11.1 µM | [12] 32.9 µM | [13] 11.1 µM | [20] 26.4 µM | [14] 15.2 µM | [15] 14.8 µM | [19] 12.2 µM | [16] 6.07 µM | [17] 24.2 µM | [18] 22.3 µM

COc1cc(/C=C/C(=O)CC(=O)/C=C/c2cc(C)c(O)c(OC)c2)cc(C)c1O
inactive: [1] > 100 µM | [2] > 100 µM | [3] > 100 µM | [5] > 100 µM | [6] > 100 µM | [7] > 100 µM | [8] > 100 µM | [9] > 100 µM | [10] > 100 µM | [12] > 100 µM | [13] > 100 µM | [20] 6.82 µM | [14] > 100 µM | [15] > 100 µM | [19] 65.6 µM | [16] > 100 µM | [17] > 100 µM | [18] 37.6 µM

Reference: ChEMBL document CHEMBL1201862, “PubChem BioAssay data set” (2004)
